Earlier results as cited in PMC10468453, “First-in-human study of a novel cell death tracer [^99mTc]Tc-Duramycin: safety, biodistribution and radiation dosimetry in healthy volunteers” (EJNMMI Radiopharmacy and Chemistry, 2023).

Details: humans; ref Challapalli et al. [2013]; Doss et al. [2013]; Hoglund et al. [2011]; Kemerink et al. [2003]; Quinn et al. [2016]
Description: We determined the mean effective dose of [^99mTc]Tc-Duramycin as 7.6 µSv/MBq, corresponding to a total effective dose of 3.60 mSv for a patient dose of 473 MBq.

Compound	Effective dose
O=C[C@H]([18F])[C@@H](O)[C@H](O)[C@H](O)CO [[^18F]FDG, 2-[^18F]fluoro-2-deoxy-D-glucose]	9.0 mSv
O=C1C(=O)N(Cc2cn(CC[18F])nn2)c2ccc(S(=O)(=O)N3CCCC3COc3ccc(F)cc3F)cc21 (stereo not drawn) [[^18F]ICMT-11]	12.5 mSv
[^99mTc]HYNIC-annexin V: radiolabeled annexin V, a phosphatidylserine-binding protein	5.5 mSv
